Results from article PMC8206213, “An L-2-hydroxyglutarate biosensor based on specific transcriptional regulator LhgR” (Nature Communications, 2021).
Several values for one entry are separate records, joined by “and”; a condition that tells them apart may be missing. Equal entries are not always repeated.

Experiments:
LHGFR0N3C [1] = experiment: Specificity of purified LHGFR0N3C, emission ratio with 240 μM compounds; assay type: binding, Pseudomonas putida W619; conditions: 240 μM compound
Description: (§1) Purified L-2-HG biosensors and different compounds were diluted by 50 mM Tris-HCl buffer (pH 7.4), mixed together in a black 96-well plate at a volume ratio of 3:1, and the fluorescence intensities were measured using an EnSight microplate reader (PerkinElmer, USA) with excitation at 430 nm, emission at 485 nm (mTFP) and 528 nm (Venus). […] The [L-2-HG], Kd, and p refer to the L-2-HG concentration, apparent dissociation constant, and Hill slope, respectively. Emission spectra were recorded at 430 nm excitation, in steps of 2 nm. Excitation spectra were recorded using emission at 550 nm, excitation from 380 to 535 nm in steps of 2 nm.

LHGFR0N7C [2] = experiment: Influence of other compounds on the response of purified LHGFR0N7C to L-2-HG; assay type: binding, Pseudomonas putida W619; conditions: Suppl. Fig. 9b; L-2-HG alone or with the compound; three replicates
Description: as §1

LHGFR0N3C [3] = experiment: Influence of other compounds on the response of purified LHGFR0N3C to L-2-HG; assay type: binding, Pseudomonas putida W619; conditions: Suppl. Fig. 9a; L-2-HG alone or with the compound; three replicates
Description: as §1

LhgR = experiment: EMSA, effect of compounds on LhgR binding to the lhgO promoter region F1; parameters: species or system Pseudomonas putida W619; conditions: 50 mM compound, 10 nM F1, 60 nM LhgR
Description: Electrophoretic mobility shift assays (EMSAs) were carried out using the DNA fragment (F1 or F2) and purified LhgR. The DNA fragments were first amplified by primer pairs F1-F/F1-R and F2-F/F2-R, respectively. Then, either fragment at a concentration of 10 nM DNA was incubated with LhgR (0–160 nM) in 20 μL EMSA binding buffer (10 mM Tris-HCl [pH 7.4], 50 mM KCl, 0.5 mM EDTA, 10% [vol/vol] glycerol, and 1 mM dithiothreitol [DTT]). The binding reactions were carried out at 30 °C for 30 min. Electrophoresis was performed on 6% native polyacrylamide gels at 4 °C and 170 V (constant voltage) for about 45 min, followed by staining with SYBR green I (TaKaRa, China) and photographing. Analysis of the interaction between lhgO promoter region (F1) and LHGFR was performed using the same procedure.
To characterize the effector of LhgR, purified LhgR was first incubated with L-lysine, 5-aminovalerate, glutarate, L-2-HG, D-2-HG, 2-KG, or succinate at 30 °C for 15 min, followed by incubation with the added DNA fragments at 30 °C for 30 min. The mixtures were subsequently subjected to electrophoresis.

LHGFR0N7C [4] = experiment: Specificity of purified LHGFR0N7C, emission ratio with 240 μM compounds; assay type: binding, Pseudomonas putida W619; conditions: 240 μM compound
Description: as §1

HEK293FT cells = experiment: Hypoxia-induced L-2-HG production in LHGFR-expressing HEK293FT cells with or without 5 mM DMαKG; assay type: cell-based, human; conditions: 5 mM, hypoxic conditions, 24 h
Description: HEK293FT cells were cultured in high-glucose Dulbecco’s modified eagle medium (DMEM) supplemented with 10% (vol/vol) fetal bovine serum (FBS), 100 units mL^−1 penicillin, and 100 μg mL^−1 streptomycin (all purchased from ThermoFisher, USA), and kept at 37 °C in humidified air containing 5% CO2. For hypoxia experiments, cells were kept in a compact O2 and CO2 subchamber controller (ProOx C21, BioSpherix, USA) at 2% O2, 5% CO2, and balanced with N2 for 24 h. For the construction of LHGFR expressing cell, HEK293FT cells were plated in 24-well plates so that they reached 70-90% confluency 24 h after plating, the medium was refreshed 2 h before transfection.
The preparation of cell suspensions and the measurement of emission ratios were performed using the same procedure. The background fluorescence was subtracted at each emission wavelength.

[5] = molecular target: LhgR (Pseudomonas putida W619); experiment: SEC; gel filtration on Superdex 200 10/300 GL against protein mass standards, compared with SDS-PAGE; 50 mM sodium phosphate, 150 mM sodium chloride, pH 7.2

Row | Molecule | Emission ratio (LHGFR0N3C [1]) | Induction of emission ratio changes (LHGFR0N3C [1]) | Emission ratio (LHGFR0N7C [2]) | Emission ratio (LHGFR0N3C [3]) | Effect on LhgR binding to the lhgO promoter region F1 (LhgR) | Emission ratio (LHGFR0N7C [4]) | Induction of emission ratio changes (LHGFR0N7C [4]) | Effect on emission ratio of LHGFR0N3C (HEK293FT cells) | stoichiometry N [5]
1 | NCCCC[C@H](N)C(=O)O [L-Lysine, L-lysine] | 1.377 and 1.382 and 1.394 | None | 2.577 and 2.607 and 2.654 | 2.026 and 2.06 and 2.101 | observed only in the presence of L-2-HG | 1.692 and 1.701 and 1.71 | None | – | –
2 | O=C(O)CCC(=O)O [Succinate, succinate] | 1.357 and 1.389 and 1.4025 | None | 2.581 and 2.619 and 2.616 | 2.013 and 2.0132 and 2.099 | observed only in the presence of L-2-HG | 1.718 and 1.724 and 1.726 | None | – | –
3 | COC(=O)CCC(=O)C(=O)OC [dimethyl-2-ketoglutarate] | – | – | – | – | – | – | – | significantly increased the emission ratio of LHGFR0N3C under hypoxic conditions | –
4 | LhgR (natural protein) | – | – | – | – | – | – | – | – | 2
